Measured values published in article PMC4796657, “Functional identification of SLC43A3 as an equilibrative nucleobase transporter involved in purine salvage in mammals” (Scientific Reports, 2015).

biological target: T1, SLC43A3 (equilibrative nucleobase transporter 1, ENBT1) (Homo sapiens, UniProt Q8NBI5); assay: inhibition of ENBT1-specific [3H]adenine uptake at […]; format: cell-based; parameters: full length, 491 amino acid residues, stably expressed in MDCKII cells; conditions: not given
T1 sequence (Q8NBI5 1-491): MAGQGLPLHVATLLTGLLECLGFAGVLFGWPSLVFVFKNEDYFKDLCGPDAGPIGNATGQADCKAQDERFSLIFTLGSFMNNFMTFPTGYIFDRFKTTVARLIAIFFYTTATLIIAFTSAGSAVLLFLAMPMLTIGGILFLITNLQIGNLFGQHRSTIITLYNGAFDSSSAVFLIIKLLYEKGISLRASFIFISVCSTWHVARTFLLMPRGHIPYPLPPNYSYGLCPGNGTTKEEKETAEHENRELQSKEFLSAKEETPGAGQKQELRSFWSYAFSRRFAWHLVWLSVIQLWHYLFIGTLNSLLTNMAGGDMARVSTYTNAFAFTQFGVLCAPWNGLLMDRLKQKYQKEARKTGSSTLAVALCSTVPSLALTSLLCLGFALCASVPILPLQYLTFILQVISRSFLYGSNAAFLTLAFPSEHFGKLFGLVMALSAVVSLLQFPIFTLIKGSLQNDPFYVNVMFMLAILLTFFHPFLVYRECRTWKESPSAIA

Row | Structure (SMILES) | inhibition of ENBT1-specific [3H]adenine uptake at 200 uM
1 | Nc1nc2nc[nH]c2c(=S)[nH]1 [6-thioguanine] | purine and its several analogs, such as 6-thioguanine and mercaptopurine, showed inhibitory activities, suggesting that they are also substrates
2 | S=c1[nH]cnc2nc[nH]c12 [mercaptopurine] | purine and its several analogs, such as 6-thioguanine and mercaptopurine, showed inhibitory activities, suggesting that they are also substrates
3 | c1ncc2nc[nH]c2n1 [purine] | purine and its several analogs, such as 6-thioguanine and mercaptopurine, showed inhibitory activities, suggesting that they are also substrates

biological target: T1, SLC43A3 (equilibrative nucleobase transporter 1, ENBT1); assay: inhibition of ENBT1-mediated [3H]hypoxanthine uptake; radiolabeled uptake (apparent Km […]); format: cell-based; parameters: full length, 491 amino acid residues, stably expressed in MDCKII cells; conditions: not given

Row | Structure (SMILES) | IC50 [µM]
4 | Nc1ncnc2nc[nH]c12 [adenine] | 13

biological target: T1, SLC43A3 (equilibrative nucleobase transporter 1, ENBT1); assay: cell-based; conditions: not given

Row | Structure (SMILES) | IC50 [µM]
5 | O=c1[nH]cnc2nc[nH]c12 [hypoxanthine] | 350

biological target: T1, SLC43A3 (equilibrative nucleobase transporter 1, ENBT1); assay: inhibition of ENBT1-specific [3H]adenine uptake, about […] at […]; format: cell-based; parameters: full length, 491 amino acid residues, stably expressed in MDCKII cells; conditions: read-out: % inhibition at 200 μM

Row | Structure (SMILES) | inhibition at 200 µM [%]
6 | O=[N+]([O-])c1ccc(CSc2ncnc3c2ncn3C2OC(CO)C(O)C2O)cc1 (centres unmarked) [nitrobenzylthioinosine] | ~40

biological target: T1, SLC43A3 (equilibrative nucleobase transporter 1, ENBT1); assay: cell-based; parameters: full length, 491 amino acid residues, stably expressed in MDCKII cells; species or system MDCKII stably expressing ENBT1; inhibition of ENBT1-specific [3H]adenine (5 nM) uptake, 40 s, 22 C, mock-subtracted, scintillation counting; conditions: MDCK-II; [3H]adenine 5 nM, pH 7.4, 22 C, 40 s; read-out: Uptake rate (% of control)
Protocol: MDCKII cells stably expressing ENBT1 (1.5 × 10^5 cells/well initially) were grown on 24-well plates for 72 h. The cells in each well were preincubated in 0.25 ml of substrate-free uptake buffer (140 mM NaCl, 5 mM KCl, 0.4 mM KH2PO4, 0.8 mM MgSO4, 1.0 mM CaCl2, 25 mM glucose, and 10 mM HEPES, pH 7.4) for 5 min, unless otherwise indicated. Uptake assays were started by replacing the substrate-free uptake buffer for preincubation with one containing the radioisotope-labeled substrate (0.25 ml). All of the procedures were conducted at 22 °C or 37 °C. Assays were stopped by addition of ice-cold substrate-free uptake buffer (2 ml), and the cells were washed two times with 2 ml of the same buffer. The cells were solubilized in 0.5 ml of 0.2 M NaOH solution containing 0.5% SDS at room temperature for 1 h, and the associated radioactivity was measured by [compound left out] scintillation counting. Cellular protein content was determined by the method of Lowry et al.[28] using bovine serum albumin as the standard. Uptake assays were also conducted in mock cells, which were transfected with empty pCI-neo vector, to estimate nonspecific uptake. To further explore the substrate specificity of ENBT1, we examined the effect of various compounds (10 μM for decynium-22 and 200 μM for the others) on the ENBT1-mediated uptake of [^3H]adenine in SLC43A3 cells (Fig. 2D). […] Because these two molecules were transported by SLC43A3 minimally (Fig. 2A), they are likely to be recognized as very poor substrates with affinities extremely low to act as competitive inhibitors. […] We also examined the effect of various amino acids (5 mM), as ENBT1 is a member of the amino acid transporter family; however, none of them affected the adenine uptake activity of SLC43A3 cells (see Supplementary Table S1 online), supporting a previo

Row | Structure (SMILES) | remaining activity at 5000 µM [%]
7 | C[C@H](N)C(=O)O [Alanine] | 103 ± 4
8 | N=C(N)NCCC[C@H](N)C(=O)O [Arginine] | 95.8 ± 1.7
9 | NC(=O)C[C@H](N)C(=O)O [Asparagine] | 103 ± 2.7
10 | N[C@@H](CC(=O)O)C(=O)O [Aspartate] | 99.9 ± 1.3
11 | N[C@@H](CS)C(=O)O [Cysteine] | 104 ± 0.8
12 | N[C@@H](CCC(=O)O)C(=O)O [Glutamate] | 103 ± 1.6
13 | NC(=O)CC[C@H](N)C(=O)O [Glutamine] | 105 ± 1.3
14 | N[C@@H](Cc1c[nH]cn1)C(=O)O [Histidine] | 101 ± 1.8
15 | CC[C@H](C)[C@H](N)C(=O)O [Isoleucine] | 100 ± 1.3
16 | CC(C)C[C@H](N)C(=O)O [Leucine] | 94 ± 2.5
17 | NCCCC[C@H](N)C(=O)O [Lysine] | 96.6 ± 1.2
18 | CSCC[C@H](N)C(=O)O [Methionine] | 95.8 ± 1.4
19 | N[C@@H](Cc1ccccc1)C(=O)O [Phenylalanine] | 98.7 ± 1.1
20 | O=C(O)[C@@H]1CCCN1 [Proline] | 103.4 ± 1
21 | N[C@@H](CO)C(=O)O [Serine] | 105 ± 2.2
22 | C[C@@H](O)[C@H](N)C(=O)O [Threonine] | 99.7 ± 0.7
23 | N[C@@H](Cc1c[nH]c2ccccc12)C(=O)O [Tryptophan] | 95.6 ± 1.8
24 | N[C@@H](Cc1ccc(O)cc1)C(=O)O [Tyrosine] | 105.7 ± 1
25 | CC(C)[C@H](N)C(=O)O [Valine] | 101 ± 1.6

biological target: T1, SLC43A3 (equilibrative nucleobase transporter 1, ENBT1); assay: inhibition of ENBT1-mediated [3H]adenine uptake; radiolabeled uptake (apparent Km […]); format: cell-based; parameters: full length, 491 amino acid residues, stably expressed in MDCKII cells; conditions: not given

Row | Structure (SMILES) | IC50 [µM]
26 | Nc1nc2nc[nH]c2c(=O)[nH]1 [guanine] | 70
